In ChEMBL document CHEMBL1201862, “PubChem BioAssay data set” (2004):
The source made the active and inactive calls.

What was measured:
Beta-lactamase [1] = target: T1, Beta-lactamase (Pseudomonas aeruginosa, UniProt Q79MP6); test: […] counterscreen for selective VIM-2 inhibitors: dose response biochemical high throughput screening assay to identify inhibitors of IMP-1 metallo-beta-lactamase.
Beta-lactamase [2] = target: T1, Beta-lactamase; test: inhibition of IMP-1 beta-lactamase activity – biochemical, epi-absorbance, selectivity assay for VIM-2 inhibitor project, dose response (AID 1920)
Beta-lactamase [3] = target: Beta-lactamase (Salmonella choleraesuis (strain SC-B67), UniProt Q5J463); test: Epi-absorbance-based counterscreen for selective VIM-2 inhibitors: dose response biochemical high throughput screening assay to identify inhibitors of TEM-1 serine-beta-lactamase.
Sequence of Beta-lactamase (Salmonella choleraesuis (strain SC-B67), UniProt Q5J463) (Q5J463 whole entry): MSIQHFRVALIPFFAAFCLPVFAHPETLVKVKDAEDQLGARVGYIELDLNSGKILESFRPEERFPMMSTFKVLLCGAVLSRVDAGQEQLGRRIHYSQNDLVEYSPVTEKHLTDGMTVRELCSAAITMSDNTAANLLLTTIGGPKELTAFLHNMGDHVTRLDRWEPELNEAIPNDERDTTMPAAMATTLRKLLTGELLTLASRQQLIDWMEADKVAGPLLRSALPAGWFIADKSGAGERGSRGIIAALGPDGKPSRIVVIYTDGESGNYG

cells [4] = format: functional, cell-based
cells [5] = format: functional, cell-based; remark: listed apart in the source
[6] = target: Fructose-bisphosphate aldolase (Mycobacterium tuberculosis, UniProt P9WQA3); test: Fluorescence-based biochemical high throughput dose response assay for inhibitors of the fructose-bisphosphate aldolase (FBA) of M. tuberculosis.; format: functional
Sequence of Fructose-bisphosphate aldolase (P9WQA3 whole entry): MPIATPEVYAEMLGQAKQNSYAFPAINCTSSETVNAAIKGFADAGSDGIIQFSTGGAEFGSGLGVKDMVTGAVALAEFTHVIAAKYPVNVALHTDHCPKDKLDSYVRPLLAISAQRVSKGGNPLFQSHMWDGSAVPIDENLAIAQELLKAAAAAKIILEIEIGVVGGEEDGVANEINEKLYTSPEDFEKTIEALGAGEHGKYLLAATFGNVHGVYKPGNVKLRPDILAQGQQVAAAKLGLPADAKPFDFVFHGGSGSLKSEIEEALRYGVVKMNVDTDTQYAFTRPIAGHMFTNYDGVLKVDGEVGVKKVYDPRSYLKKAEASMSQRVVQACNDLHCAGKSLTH

T1 sequence (Q79MP6 whole entry): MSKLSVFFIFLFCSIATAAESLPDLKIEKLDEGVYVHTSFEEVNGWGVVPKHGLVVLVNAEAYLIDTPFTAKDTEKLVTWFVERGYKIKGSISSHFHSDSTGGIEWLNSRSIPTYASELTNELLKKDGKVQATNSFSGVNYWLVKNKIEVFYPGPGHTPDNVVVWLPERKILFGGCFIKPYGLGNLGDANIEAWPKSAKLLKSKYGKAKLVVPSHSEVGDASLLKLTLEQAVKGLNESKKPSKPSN

Cc1nn(CCc2nnc(S)n2-c2cccc(Cl)c2)c(C)c1[N+](=O)[O-]
IC50 (Beta-lactamase [1]): > 59.6 µM (inactive)
IC50 (Beta-lactamase [2]): > 59.6 µM (inactive)
IC50 (Beta-lactamase [3]): > 59.6 µM (inactive)

CC(C)Cn1c(S)nnc1-c1ccco1
IC50 (Beta-lactamase [1]): > 59.6 µM (inactive)
IC50 (Beta-lactamase [2]): > 59.6 µM (inactive)
IC50 (Beta-lactamase [3]): > 59.6 µM (inactive)

CCCCn1c(=O)[nH]c(=O)c2c(C(=O)OCC)cc(-c3cccs3)nc21
EC50 (cells [4]): > 350 µM (not active)
EC50 (cells [5]): > 350 µM (not active)
IC50 [6]: 0.582 µM (active)
